Experimental data reported in the NIST ThermoML archive (doi:10.1016/j.fluid.2008.06.003).
± gives the expanded uncertainty stated by the source.

Columns and labels:
[1] = 298.15 K, 101.33 kPa, Liquid
[2] = refractive index (Na D-line) (dimensionless); details: 298.15 K; 101.33 kPa; Liquid; Standard Abbe refractometry

SMILES	mass density ([1]; Vibrating tube method)	refractive index [2]	mass density [1]
CCCCCCn1cc[n+](C)c1.F[P-](F)(F)(F)(F)F [1-hexyl-3-methylimidazolium hexafluorophosphate]	1293.7 ± 9.1 kg/m3	1.41787 ± 0.001	
CCCCCCCC[n+]1ccn(C)c1.F[P-](F)(F)(F)(F)F [1-octyl-3-methylimidazolium hexafluorophosphate]	1235.7 ± 8.3 kg/m3	1.42302 ± 0.001	
CCO [ethanol]		1.35929 ± 0.00031	785.1 ± 0.5 kg/m3
CCCCCCC [heptane]		1.38517 ± 0.00037	679.5 ± 1 kg/m3
CCCCCC [hexane]		1.37217 ± 0.00037	654.9 ± 1.1 kg/m3
